Experimental data from patent US20180289713A1, “COMPOUNDS FOR TREATING AMYOTROPHIC LATERAL SCLEROSIS” (Hoffmann-La Roche Inc., priority 2015, published 2018).

Assays:
[1] = system: full length SMN2 minigene mRNA (HEK293H cell line stably transfected with SMN2-A minigene); test: SMN2 minigene mRNA splicing RT-qPCR assay in cultured cells; type: cell-based; settings: HEK293-H, concentration raising full length SMN2 minigene mRNA 1.5-fold vs vehicle, 24 hours, 7-point curve, read-out: EC1.5x minigene
Description: The term “EC1.5× concentration for production of full length SMN2 minigene mRNA” (or “EC1.5× minigene”) is defined as that concentration of test compound that is effective in increasing the amount of full length SMN2 minigene mRNA to a level 1.5-fold greater relative to that in vehicle-treated cells.
The reverse transcription-quantitative PCR-based (RT-qPCR) assay is used to quantify the level of the full length SMN2 minigene (referred to herein by the term “FL SMN2mini”) mRNA containing SMN2 exon 7 in a HEK293H cell line stably transfected with said minigene and treated with a test compound. Materials used and respective sources are listed below in Table 1.
The SMN2-A minigene construct was prepared as described in International Patent Application WO2009/151546A1 page 145 paragraph [00400] to page 147 paragraph [00412](incl. FIG. 1 and FIG. 3 therein).
HEK293H cells stably transfected with the SMN2-A minigene construct (10,000 cells/well) are seeded in 200 μL of cell culture medium (DMEM plus 10% FBS, with 200 μg/mL hygromycin) in 96-well flat-bottom plates and the plate is immediately swirled to ensure proper dispersal of cells and the formation of an even monolayer of cells. Cells are allowed to attach for 6 hours. Test compounds are serially diluted 3.16-fold in 100% DMSO to generate a 7-point concentration curve. […]
Full length SMN2-A minigene and GAPDH mRNA are quantified using the primers and probes referenced in WO2014/209841A2 on page 80 in Table 1. […]
The increase in the abundance of the FL SMN2mini mRNA relative to that in cells treated with vehicle control is determined from real-time PCR data using a modified […] method (as described in Livak and Schmittgen, Methods, 2001, 25:402-8). The amplification efficiency E is calculated from the slope of the amplification curve for FL SMN2mini and GAPDH individually. The abundance of FL SMN2mini and GAPDH mRNA are then calculated as (1+E)^−Ct, where Ct is the threshold value for each amplicon. […]

patients with ALS = settings: cited from earlier work
[2] = system: SMN levels in SOD1-ALS iPS cell and TDP43-47A iPS cell line; settings: dose dependent; SOD1-ALS and TDP43-47A iPSC-derived ALS models; cited from earlier work

SMILES	EC (1.5-fold) [1] [µM]	also measured
Cc1cn2nc(-c3cc(=O)n4cc(N5CCNC6(CC6)C5)ccc4n3)ccc2n1 [Example 19, 7-(4,7-diazaspiro[2.5]octan-7-yl)-2-(2-methylimidazo[1,2-b]pyridazin-6-yl)pyrido[1,2-a]pyrimidin-4-one]	0.0102	
Cc1cn2nc(-c3cc(=O)n4cc(N5C[C@@H](C)N[C@@H](C)C5)cc(C)c4n3)cc(C)c2n1 [Example 26, 2-(2,8-dimethylimidazo[1,2-b]pyridazin-6-yl)-7-[(3R,5S)-3,5-dimethylpiperazin-1-yl]-9-methyl-pyrido[1,2-a]pyrimidin-4-one]	0.327	
Cc1cn2nc(-c3cc(=O)n4cc(N5CCNC(C)(C)C5)cc(C)c4n3)cc(C)c2n1 [Example 27, 2-(2,8-dimethylimidazo[1,2-b]pyridazin-6-yl)-7-(3,3-dimethylpiperazin-1-yl)-9-methyl-pyrido[1,2-a]pyrimidin-4-one]	0.0399	
Nc1nc2ccc(OC(F)(F)F)cc2s1 [Riluzole]		improvement of muscular strength (patients with ALS; ALS patients, some reports): does not appear to provide any improvement of muscular strength; extension of life (patients with ALS; at least some patients with ALS): three
CCN1CCC(c2cc(C)c3nc(-c4cc5c(C)nc(C)cn5n4)cc(=O)n3c2)CC1 [SMN-C3]		increase of SMN levels [2]: up to 1.4 fold
